Laboratory results taken from patent US10954252B1, “Inhibitors of human immunodeficiency virus replication” (ViiV HEALTHCARE UK (NO.5) LIMITED, priority 2017, dated 2021).

Tests used:
[1] = system: recombinant NL4-3 virus (nef section replaced with Renilla luciferase gene) in MT-2 cells; experiment: HIV cell culture assay (antiviral activity, luciferase readout); format: cell-based; details: MT-2 cells infected for 4-5 days with recombinant NL4-3 luciferase virus
Method in brief: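 NL4-3 reporter virus carrying Renilla luciferase in place of part of nef, produced in 293T cells, was used to infect MT-2 cells for 4-5 days with serial compound dilutions. Luciferase activity was read with a live-cell substrate; EC50 derived from the median effect equation.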

[2] = Stereoisomer interconversion on storage in MeOH at ambient condition; format: physicochemical; details: stored in MeOH at ambient condition
[3] = Compound cytotoxicity, XTT-based colorimetric assay; format: cell-based; details: human, uninfected MT2 cells, Table 1, day 4, XTT
Method in brief: (§1)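 CC50 from uninfected MT2 cells run under the antiviral-assay protocol without virus. Viability read on day 4 by XTT colorimetric assay.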

uninfected MT2 cells = experiment: as above; format: cell-based
Method in brief: as §1

Row | SMILES | EC50 ([1]; Table 1a) [nM] | CC50 (uninfected MT2 cells; Table 1a, day 4, XTT) [µM] | EC50 ([1]; Table 1) [nM] | CC50 (uninfected MT2 cells; Table 1, day 4, XTT) [µM] | also measured
1 | Cn1nc(NS(C)(=O)=O)c2c(Cl)ccc(-n3c(C(Cc4cc(F)cc(F)c4)NC(=O)Cn4nc(C(F)F)c5c4C(F)(F)[C@@H]4C[C@H]54)nc4nc(C(F)(F)F)ccc4c3=O)c21 (mixture of isomers) [Example 11.1, N—((S)-1-(3-(4-chloro-1-methyl-3-(methylsulfonamido)-1H-indazol-7-yl)-4-oxo-7-(trifluoromethyl)-3,4-dihydropyrido[2,3-d]pyrimidin-2-yl)-2-(3,5-difluorophenyl)ethyl)-2-((3bS,4aR)-3-(difluoromethyl)-5,5-difluoro-3b,4,4a,5-tetrahydro-1H-cyclopropa[3,4]cyclopenta[1,2-c]pyrazol-1-yl)acetamide] |  |  |  |  | EC50 ([1]; Renilla, NL43, Table 1): 520 nM; conversion to another stereoisomer on storage [2]: one of the isomers in Example 11.1 converts to Example 11.2; CC50 at 4 days [3]: > 10 µM
2 | Cn1nc(NS(C)(=O)=O)c2c(Cl)ccc(-n3c([C@H](Cc4cc(F)cc(F)c4)NC(=O)Cn4nc(C(F)F)c5c4C(F)(F)C4CC54)nc4nc(C(F)(F)F)ccc4c3=O)c21 (stereo in doubt) [Example 11.2, N—((S)-1-(3-(4-chloro-1-methyl-3-(methylsulfonamido)-1H-indazol-7-yl)-4-oxo-7-(trifluoromethyl)-3,4-dihydropyrido[2,3-d]pyrimidin-2-yl)-2-(3,5-difluorophenyl)ethyl)-2-((3bS,4aR)-3-(difluoromethyl)-5,5-difluoro-3b,4,4a,5-tetrahydro-1H-cyclopropa[3,4]cyclopenta[1,2-c]pyrazol-1-yl)acetamide] |  |  |  |  | EC50 ([1]; Renilla, NL43, Table 1): 51 nM; conversion to another stereoisomer on storage [2]: converts slowly to one of the isomers in Example 11.1; CC50 at 4 days [3]: > 10 µM
3 | Cn1ccc2nc(C(Cc3cc(F)cc(F)c3)NC(=O)Cn3nc(C(F)F)c4c3C(F)(F)[C@@H]3C[C@H]43)c(-c3ccc(Cl)c4c(NS(C)(=O)=O)nn(C)c34)cc21 (single isomer, unassigned) [Example 118] | 0.162 | > 10 |  |  | 
4 | Cn1nc(NS(C)(=O)=O)c2c(Cl)ccc(-n3c([C@H](Cc4cc(F)cc(F)c4)NC(=O)Cn4nc(C(F)F)c5c4C(F)(F)[C@@H]4C[C@H]54)nc4cc(C(F)(F)F)ccc4c3=O)c21 (single isomer, unassigned) [Example 138] | 0.042 | > 1 |  |  | 
5 | COc1cccc2nc([C@H](Cc3cc(F)cc(F)c3)NC(=O)Cn3nc(C(F)F)c4c3C(F)(F)[C@@H]3C[C@H]43)n(-c3ccc(Cl)c4c(NS(C)(=O)=O)nn(C)c34)c(=O)c12 (mixture of isomers) [Example 170, N—((S)-1-(3-(4-chloro-1-methyl-3-(methylsulfonamido)-1H-indazol-7-yl)-5-methoxy-4-oxo-3,4-dihydroquinazolin-2-yl)-2-(3,5-difluorophenyl)ethyl)-2-((3bS,4aR)-3-(difluoromethyl)-5,5-difluoro-3b,4,4a,5-tetrahydro-1H-cyclopropa[3,4]cyclopenta[1,2-c]pyrazol-1-yl)acetamide] | 0.052 | > 1 |  |  | 
6 | O=C(Cn1nc(C(F)F)c2c1C(F)(F)[C@@H]1C[C@H]21)NC(Cc1cc(F)cc(F)c1)c1nc2ncsc2cc1-c1ccc2scnc2c1 (single isomer, unassigned) [Example 1.1] |  |  | 3.1 | > 100 | 
7 | O=C(Cn1nc(C(F)F)c2c1C(F)(F)[C@@H]1C[C@H]21)N[C@H](Cc1cc(F)cc(F)c1)c1nc2cn[nH]c2cc1-c1ccc2scnc2c1 (single isomer, unassigned) [Example 3.1] |  |  | 22 | 42.1 | 
8 | Cn1nc(NS(C)(=O)=O)c2c(Cl)ccc(-c3cc4ccccc4nc3C(Cc3cc(F)cc(F)c3)NC(=O)Cn3nc(C(F)F)c4c3C(F)(F)[C@@H]3C[C@H]43)c21 (single isomer, unassigned) [Example 8.2] |  |  | 180 | > 10 | 
9 | Cc1c(F)ccc2c(=O)n(-c3ccc(Cl)c4c(NS(C)(=O)=O)nn(C)c34)c([C@H](Cc3cc(F)cc(F)c3)NC(=O)Cn3nc(C(F)F)c4c3C(F)(F)[C@@H]3C[C@H]43)nc12 (single isomer, unassigned) [Example 108] | 0.85 | > 1 |  |  | 
10 | O=C(Cc1c[nH]c2ccc(F)cc12)NC(Cc1cc(F)cc(F)c1)c1nc2cn[nH]c2cc1-c1ccc2scnc2c1 (single isomer, unassigned) [Example 3.6, N-(1-(6-(benzo[d]thiazol-5-yl)-1H-pyrazolo[4,3-b]pyridin-5-yl)-2-(3,5-difluorophenyl)ethyl)-2-(5-fluoro-1H-indol-3-yl)acetamide] |  |  | 230 | 32.6 | 
11 | Cn1ccc2nc([C@H](Cc3cc(F)cc(F)c3)NC(=O)Cn3nc(C(F)F)c4c3C(F)(F)[C@@H]3C[C@H]43)c(-c3ccc(Cl)c4c(NS(C)(=O)=O)nn(C)c34)cc21 (single isomer, unassigned) [Example 120] | 0.0753 | > 10 |  |  | 
12 | Cn1nc(NS(C)(=O)=O)c2c(Cl)ccc(-n3c([C@H](Cc4cc(F)cc(F)c4)NC(=O)Cn4nc(C(F)F)c5c4C(F)(F)[C@@H]4C[C@H]54)nc4cc(C(C)(C)C)ccc4c3=O)c21 (mixture of isomers) [Example 216, N—((S)-1-(7-(tert-Butyl)-3-(4-chloro-1-methyl-3-(methylsulfonamido)-1H-indazol-7-yl)-4-oxo-3,4-dihydroquinazolin-2-yl)-2-(3,5-difluorophenyl)ethyl)-2-((3bS,4aR)-3-(difluoromethyl)-5,5-difluoro-3b,4,4a,5-tetrahydro-1H-cyclopropa[3,4]cyclopenta[1,2-c]pyrazol-1-yl)acetamide] | 0.059 | > 1 |  |  | 
13 | Cn1nc(NS(C)(=O)=O)c2c(Cl)ccc(-n3c([C@H](Cc4cc(F)cc(F)c4)NC(=O)Cn4nc(C(F)F)c5c4C(F)(F)[C@@H]4C[C@H]54)nc4ccc(Cl)c(F)c4c3=O)c21 (single isomer, unassigned) [Example 177] | 45 | > 1 |  |  | 
14 | Cc1cccc2nc([C@H](Cc3cc(F)cc(F)c3)NC(=O)Cn3nc(C(F)F)c4c3C(F)(F)[C@@H]3C[C@H]43)n(-c3ccc(Cl)c4c(NS(C)(=O)=O)nn(C)c34)c(=O)c12 (single isomer, unassigned) [Example 126] | 0.054 | > 1 |  |  | 
15 | COc1c(F)ccc2c(=O)n(-c3ccc(Cl)c4c(NS(C)(=O)=O)nn(C)c34)c([C@H](Cc3cc(F)cc(F)c3)NC(=O)Cn3nc(C(F)F)c4c3C(F)(F)[C@@H]3C[C@H]43)nc12 (single isomer, unassigned) [Example 110] | 0.072 | > 1 |  |  | 
16 | O=C(Cn1nc(C(F)F)c2c1C(F)(F)[C@@H]1C[C@H]21)NC(Cc1cc(F)cc(F)c1)c1ncc2nc[nH]c2c1-c1ccc2scnc2c1 (single isomer, unassigned) [Example 7.2] |  |  | 9 | 17.5 | 
17 | Cn1nc(NS(C)(=O)=O)c2c(Cl)ccc(-n3c([C@H](Cc4cc(F)cc(F)c4)NC(=O)Cn4ccc(C(F)(F)F)n4)nc4cc(C(F)(F)F)ccc4c3=O)c21 (single isomer, unassigned) [Example 142] | 4.98 | > 1 |  |  | 
18 | Cn1nc(NS(C)(=O)=O)c2c(Cl)ccc(-n3c([C@H](Cc4cc(F)cc(F)c4)NC(=O)Cn4nc(C(F)F)c5c4C(F)(F)[C@@H]4C[C@H]54)nc4ncccc4c3=O)c21 (single isomer, unassigned) [Example 10.40] |  |  | 0.0189 | > 10 | 
19 | Cc1ccn(CC(=O)N[C@@H](Cc2cc(F)cc(F)c2)c2nc3ncccc3c(=O)n2-c2ccc(Cl)c3c(NS(C)(=O)=O)nn(C)c23)n1 (single isomer, unassigned) [Example 47.2] | 1.7 | > 1 |  |  | 
20 | COc1ccc2c(=O)n(-c3ccc(Cl)c4c(NS(C)(=O)=O)nn(C)c34)c([C@H](Cc3cc(F)cc(F)c3)NC(=O)Cn3ccc(C4CC4)n3)nc2n1 (mixture of isomers) [Example 58.2, N-[(1S)-1-[3-(4-chloro-3-methanesulfonamido-1-methyl-1H-indazol-7-yl)-7-methoxy-4-oxo-3H,4H-pyrido[2,3-d]pyrimidin-2-yl]-2-(3,5-difluorophenyl)ethyl]-2-(3-cyclopropyl-1H-pyrazol-1-yl)acetamide] | 0.168 | > 1 |  |  | 
21 | Cn1nc(NS(C)(=O)=O)c2c(Cl)ccc(-c3c(C(Cc4cc(F)cc(F)c4)NC(=O)Cn4nc(C(F)F)c5c4C(F)(F)[C@@H]4C[C@H]54)ncc4[nH]cnc34)c21 (single isomer, unassigned) [Example 7.5] |  |  | 1320 | > 10 | 
22 | Cn1nc(NS(C)(=O)=O)c2c(Cl)ccc(-n3c([C@H](Cc4cc(F)cc(F)c4)NC(=O)Cn4nc(C(F)F)c5c4C(F)(F)[C@@H]4C[C@H]54)nc4ccc(F)c(Cl)c4c3=O)c21 (single isomer, unassigned) [Example 161] | 28.9 | > 1 |  |  | 
23 | Cn1nc(NS(C)(=O)=O)c2c(Cl)ccc(-n3c([C@H](Cc4cc(F)cc(F)c4)NC(=O)Cn4nc(C(F)F)c5c4CCC5)nc4c(F)cc(F)cc4c3=O)c21 (single isomer, unassigned) [Example 100] | 0.033 | > 1 |  |  | 
